SMILES strings stand for the structures.

The target in the first data set is T1, human MC-4R (Homo sapiens, UniProt P32245).
T1 construct: expressed in transfected cells
T1 sequence (P32245 whole entry): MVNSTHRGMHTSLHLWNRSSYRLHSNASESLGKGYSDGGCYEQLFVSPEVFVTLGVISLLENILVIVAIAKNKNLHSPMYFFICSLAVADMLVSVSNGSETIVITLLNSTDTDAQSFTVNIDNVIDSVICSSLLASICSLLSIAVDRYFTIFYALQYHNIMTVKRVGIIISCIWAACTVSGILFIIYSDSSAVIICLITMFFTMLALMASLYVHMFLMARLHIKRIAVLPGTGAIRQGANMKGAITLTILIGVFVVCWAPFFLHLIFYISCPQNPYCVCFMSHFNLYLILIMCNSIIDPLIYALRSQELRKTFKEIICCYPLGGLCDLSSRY
Kind of data set: Biological Assay: inhibition of AgRP functional interaction with MC-4R in presence of αMSH (cAMP production). The class given is cell-based. Particulars: HEK293 cells expressing human MC-4R, AgRP83-132 and αMSH present; read-out: Average EC50 (nM) in Biological Assay. The protocol:
The following method is illustrative of techniques that may be employed to measure the ability of the compounds of Formula (I) to functionally modulate the binding of AgRP to melanocortin receptors. In particular, the assay below measures the ability of compounds of Formula (I) or pharmaceutically acceptable salts thereof to functionally modulate the binding of AgRP to MC-4R in the presence of a MC-4R agonist, such as alpha-MSH.
HEK293 cells stably expressing human MC-4R receptors were grown in high glucose Dulbecco's Modified Eagle Medium (DMEM) with 4500 mg glucose/L, L-glutamine, NaHCO3, pyrdoxin HCl, 10 mM HEPES (pH 7.4), 0.1 mM NEAA (non-essential amino acid medium) (GIBCO Cat#11140-050), 10% fetal bovine serum and 700 μg/mL G418. Cells were grown in T-225 flasks at 37° C. with CO2 and humidity control.
On the day of assay, cells were washed twice with phosphate buffered saline without calcium and magnesium (PBS) and incubated with 10 mL PBS until the cells were detached from the flask. The detached cells were centrifuged at 240 g for 5 min. The cell pellet was re-suspended in assay buffer (Earle's balanced salt solution (Sigma E3024) supplemented with 10 mM HEPES, pH 7.4, 0.5 mM IBMX and protease inhibitor cocktail (Roche, 1 complete tablet/75 mL buffer)).
The inhibitory or enhancement effect of compounds on AgRP activity was measured in a multi-component assay containing testing compounds, AgRP83-132 (human, Phoenix Pharma, cat no. 003-53), cells expressing MC-4R, and αMSH (Bachem, cat no. H-1075). Test compounds, AgRP and αMSH were diluted with assay buffer. Test compounds and AgRP were mixed to 4 times of the final concentration and incubated at room temperature for 30 min. Five μL of testing compound/AgRP solution followed with 10 μL of cells (20,000 cells/well) were added to each well of a 384-well reaction plate before 5 μL of αMSH was added. Cells were stimulated with αMSH for an additional 30 min at 37° C.
Stimulation of cells was stopped by adding a lysis buffer and cells were lysed. The intracellular concentration of cAMP may be measured by various techniques known to one of skill in the art including, but not limited to, fluorescence polarization (FP) and time-resolved fluorescence (TRF).
The inhibition was shown by an increase in MC-4R mediated cAMP production.
Background: Changes in cAMP serve as a functional read-out for many G protein-coupled receptors.
In the case of `Cc1ccc(CN(CCC(=O)O)c2nc(C3(C)CCC(C(C)C)CC3)cs2)s1` (stereo not drawn) [Example 48, Sodium; 3-[[4-(4-isopropyl-1-methyl-cyclohexyl)-thiazol-2-yl]-(5-methyl-thiophen-2-ylmethyl)-amino]-propionate], the EC50 (as a rule, the midpoint of the concentration-response curve) was 73 nM.

Turning to `Cc1ccc(CN(CCC(=O)O)c2nc(C3CC4CCCCC4C3)cs2)s1` (stereo not drawn) [Example 57, 3-{(5-Methyl-thiophen-2-ylmethyl)-[4-(octahydro-inden-2-yl)-thiazol-2-yl]-amino}-propionic acid], the 50% effective concentration (EC50) was found to be 187 nM. Turning to `Cc1ccc(CN(CCC(=O)O)c2nc(C3(C)CCC(C(C)(C)C)CC3)cs2)s1` (stereo not drawn) [Example 50, 3-[[4-(4-tert-Butyl-1-methyl-cyclohexyl)-thiazol-2-yl]-(5-methyl-thiophen-2-ylmethyl)-amino]-propionic acid], the EC50 was found to be 154 nM. With `Cc1ccc(CN(CCC(=O)O)c2nc(C3(C)CCC(C)(C)CC3)cs2)s1` [Example 52, 3-[[4-(1,4,4-trimethyl-cyclohexyl)-thiazol-2-yl]-(5-methyl-thiophen-2-ylmethyl)-amino]-propionic acid], the EC50 was 267 nM. For the compound `CCC1(c2csc(N(CCC(=O)O)Cc3ccc(C)s3)n2)CCC(C(C)C)CC1` (mixture of isomers) [Example 41, Sodium; 3-[[4-(1-ethyl-4-isopropyl-cyclohexyl)-thiazol-2-yl]-(5-methyl-thiophen-2-ylmethyl)-amino]-propionate], the EC50 worked out at 58 nM. As for `CCc1ccc(CN(CCC(=O)O)c2nc(C3CCC(OC)CC3)cs2)s1` (stereo not drawn) [Example 33, 3-{(5-Ethyl-thiophen-2-ylmethyl)-[4-(4-methoxy-cyclohexyl)-thiazol-2-yl]-amino}-propionic acid], the EC50 was determined as 1230 nM. `CCc1ccc(CN(CCC(=O)O)c2nc(C3(C)CCC(C(C)C)CC3)cs2)s1` (stereo not drawn) [Example 49, Sodium; 3-{(5-ethyl-thiophen-2-ylmethyl)-[4-(4-isopropyl-1-methyl-cyclohexyl)-thiazol-2-yl]-amino}-propionate]: the EC50 is 102 nM.

For the compound `CCc1ccc(CN(CCC(=O)O)c2nc(C3CCC(C(C)(C)C)CC3)cs2)s1` (stereo not drawn) [Example 28, 3-[[4-(4-tert-Butyl-cyclohexyl)-thiazol-2-yl]-(5-ethyl-thiophen-2-ylmethyl)-amino]-propionic acid], the EC50 turned out to be 171 nM. For the compound `Cc1ccc(CN(CCC(=O)O)c2nc(C3CCC(C)(C)CC3)c(C)s2)s1` [Example 56, Sodium; 3-[[4-(4,4-dimethyl-cyclohexyl)-5-methyl-thiazol-2-yl]-(5-methyl-thiophen-2-ylmethyl)-amino]-propionate], the concentration for a half-maximal effect (EC50) worked out at 217 nM.

Regarding `COC1CCC(c2csc(N(CCC(=O)O)Cc3ccc(C)s3)n2)CC1` (stereo not drawn) [Example 30, 3-[[4-(4-Methoxy-cyclohexyl)-thiazol-2-yl]-(5-methyl-thiophen-2-ylmethyl)-amino]-propionic acid], the EC50 was determined as 3890 nM.

As to `CCc1ccc(CN(CCC(=O)O)c2nc([C@H]3CC[C@H](C(C)C)CC3)cs2)s1` [Example 10, Sodium; 3-[(5-ethyl-thiophen-2-ylmethyl)-[4-(4-trans-isopropyl-cyclohexyl)-thiazol-2-yl]-amino]-propionate], the 50% effective concentration (EC50) stood at 260 nM. Turning to `Cc1ccc(CN(CCC(=O)O)c2nc(C3CCC(C(F)(F)F)CC3)cs2)s1` (stereo not drawn) [Example 18, 3-{(5-Methyl-thiophen-2-ylmethyl)-[4-(4-trifluoromethyl-cyclohexyl)-thiazol-2-yl]-amino}-propionic acid], the half-maximal effective concentration (EC50) came out at 416 nM.

Turning to `CCc1ccc(CN(CCC(=O)O)c2nc(C3Cc4ccccc4C3)cs2)s1` [Example 11, 3-[(5-Ethyl-thiophen-2-ylmethyl)-(4-indan-2-yl-thiazol-2-yl)-amino]-propionic acid], the EC50 is 252 nM.

Tested on in another data set: not listed separately
Briefly: Pharmacokinetic screening in rats (plasma and brain). The note with it: male, Sprague Dawley, rat, brain, po, 5 mg/kg, Brain - 2 hours (ng/g), 5 mg/kg PO, 2 hour time point.
As for `Cc1ccc(CN(CCC(=O)O)c2nc(C3(C)CCC(C(C)C)CC3)cs2)s1` (stereo not drawn) [Example 48, Sodium; 3-[[4-(4-isopropyl-1-methyl-cyclohexyl)-thiazol-2-yl]-(5-methyl-thiophen-2-ylmethyl)-amino]-propionate], the concentration at 2 h came to 251 ng/g.

Still in this data set, the particulars now being: male, Sprague Dawley, rat, plasma, po, 5 mg/kg, Plasma - 2 hours (ng/mL), 5 mg/kg PO, 2 hour time point.
`Cc1ccc(CN(CCC(=O)O)c2nc(C3(C)CCC(C(C)C)CC3)cs2)s1` (stereo not drawn) [Example 48, Sodium; 3-[[4-(4-isopropyl-1-methyl-cyclohexyl)-thiazol-2-yl]-(5-methyl-thiophen-2-ylmethyl)-amino]-propionate]: the concentration at 2 h was determined as 486 ng/mL.

The record behind these values is patent US8563742B2, “Substituted aminothiazole derivatives, pharmaceutical compositions, and methods of use” (High Point Pharmaceuticals, LLC, priority 2008, dated 2013).
